Results: patent US12325696B2, “Indazole derivative, preparation method therefor, and pharmaceutical application thereof” (JIANGSU HENGRUI MEDICINE CO., LTD., priority 2019, dated 2025)

How the values were obtained:
[1] = system: estrogen receptor reporter gene; experiment: Inhibition of estrogen receptor reporter gene activity (ERE-luc luciferase) in MCF7/ERE-luc cells; type: cell-based; conditions: Homo sapiens, 0.1 nM β-estradiol, 20 hours, read-out: IC50 of inhibitory activity on the activity of the estrogen receptor reporter gene
Method in brief: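 MCF7 cells stably carrying ERE-driven luciferase, in charcoal-stripped serum medium, were stimulated with 0.1 nM β-estradiol plus compound (nine 10-fold dilutions from 10 μM) for 20 h at 37° C. ONE-Glo luminescence was read, and IC50 was fitted from signal versus log concentration.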

MCF7 cell = experiment: Inhibition of proliferation of MCF7 cell (CellTiter-Glo, 144 hours); type: cell-based; conditions: Homo sapiens; for IC50: MCF7, CellTiter-Glo, read-out: IC50 of the inhibitory effect on the proliferation of MCF7 cell; for Emax: MCF7 cell proliferation, read-out: Maximum inhibition
Method in brief: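 Seeded overnight, MCF7 cells were treated in MEM with 2% FBS with nine 4-fold dilutions from 100 nM (0.5% DMSO blank). Incubation 144 h at 37° C, 5% CO2. CellTiter-Glo luminescence read; IC50 from signal versus log concentration.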

SMILES	IC50 [1] [nM]	IC50 (MCF7 cell) [nM]	Emax (MCF7 cell) [%]
O=C(/C=C/CNC1(COc2ccc(/C(=C(/CC(F)(F)F)c3ccccc3)c3ccc4[nH]nc(F)c4c3)cn2)CC1)N1CCOCC1 [Example 1, (E)-1-Morpholino-4-((1-(((5-((Z)-4,4,4-trifluoro-1-(3-fluoro-1H-indazol-5-yl)-2-phenylbut-1-en-1-yl)pyridin-2-yl)oxy)methyl)cyclopropyl)amino)but-2-en-1-one]	1	0.5	100
CN(C)C(=O)/C=C/CN1CCC[C@@H](Oc2ccc(/C(=C(/CC(F)(F)F)c3ccccc3)c3ccc4[nH]nc(F)c4c3)cn2)C1 [Example 14, (E)-N,N-Dimethyl-4-((R)-3-((5-((Z)-4,4,4-trifluoro-1-(3-fluoro-1H-indazol-5-yl)-2-phenylbut-1-en-1-yl)pyridin-2-yl)oxy)piperidin-1-yl)but-2-enamide]	2	0.8	108
O=C(/C=C/CN1CCC[C@@H](Oc2ccc(/C(=C(/CC(F)(F)F)c3ccccc3)c3ccc4[nH]nc(F)c4c3)cn2)C1)N1CCCC1 [Example 15, (E)-1-(Pyrrolidin-1-yl)-4-((R)-3-((5-((Z)-4,4,4-trifluoro-1-(3-fluoro-1H-indazol-5-yl)-2-phenylbut-1-en-1-yl)pyridin-2-yl)oxy)piperidin-1-yl)but-2-en-1-one]	3	0.2	107
CN(C)C(=O)/C=C/CNC1(COc2ccc(/C(=C(/CC(F)(F)F)c3ccccc3)c3ccc4[nH]nc(F)c4c3)cn2)CC1 [Example 39, (E)-N,N-Dimethyl-4-((1-(((5-((Z)-4,4,4-trifluoro-1-(3-fluoro-1H-indazol-5-yl)-2-phenylbut-1-en-1-yl)pyridin-2-yl)oxy)methyl)cyclopropyl)amino)but-2-enamide]	2	0.2	113
O=C(/C=C/CNC1(COc2ccc(/C(=C(/CC(F)(F)F)c3ccccc3)c3ccc4[nH]nc(F)c4c3)cn2)CC1)N1CC(O)C1 [Example 40, (E)-1-(3-Hydroxyazetidin-1-yl)-4-((1-(((5-((Z)-4,4,4-trifluoro-1-(3-fluoro-1H-indazol-5-yl)-2-phenylbut-1-en-1-yl)pyridin-2-yl)oxy)methyl)cyclopropyl)amino)but-2-en-1-one]	2	0.1	115
O=C(/C=C/CNC1(COc2ccc(/C(=C(/CC(F)(F)F)c3ccccc3)c3ccc4[nH]nc(F)c4c3)cn2)CC1)N1CC[C@H](O)C1 [Example 41, (E)-1-((S)-3-Hydroxypyrrolidin-1-yl)-4-((1-(((5-((Z)-4,4,4-trifluoro-1-(3-fluoro-1H-indazol-5-yl)-2-phenylbut-1-en-1-yl)pyridin-2-yl)oxy)methyl)cyclopropyl)amino)but-2-en-1-one]	3	0.1	115
O=C(/C=C/CNC1(COc2ccc(/C(=C(/CC(F)(F)F)c3ccccc3)c3ccc4[nH]nc(F)c4c3)cn2)CC1)N1CCO[C@@H](CO)C1 [Example 42, (E)-1-((R)-2-(Hydroxymethyl)morpholino)-4-((1-(((5-((Z)-4,4,4-trifluoro-1-(3-fluoro-1H-indazol-5-yl)-2-phenylbut-1-en-1-yl)pyridin-2-yl)oxy)methyl)cyclopropyl)amino)but-2-en-1-one]	0.7	0.03	105
